# Results as given in PMC9486805, “Identification of a Phage Display-Derived Peptide Interacting with the N-Terminal Region of Factor VII Activating Protease (FSAP) Enables Characterization of Zymogen Activation” (ACS Chemical Biology, 2022).
# Legend:
# pro-urokinase = test: Specificity towards pro-enzymes: pro-urokinase; format: biochemical; conditions: pro-uPA 100 nM; peptide 0-50 μM; PNAPEP 1344 (Fig S7)
# Description: Fig S7. […]
# µM). Pro-uPA (100 nM) and uPA (20 nM) with PNAPEP 1344 (250 µM). Factor X (50 […]
# (§1) Bend, IN, USA) except plasminogen and FSAP, which were isolated in house; and pro-uPA was from Grünenthal (Stolberg, Germany). All chromogenic substrates were from Hyphen Biomed (Neuville Sur Oise, France). Experiments were carried out in TBS with Tween-20 (0.1 % wt/ vol) BSA (0.3% wt/vol) and CaCl2 (2 mM). Absorbance at 405 nm was measured over time and the enzyme activity is depicted was measured in duplicates (mean + or -range) and similar results were obtained in 3
# prothrombin = test: Specificity towards pro-enzymes: prothrombin; format: biochemical; conditions: prothrombin 100 nM; peptide 0-50 μM; CS01 (Fig S7)
# Description: Fig S7. […]
# (§2) Pro-thrombin (100 nM) and thrombin (20 nM) […]
# as §1
# thrombin = test: Specificity: thrombin; format: biochemical; conditions: thrombin 20 nM; peptide 0-50 μM; CS01 (Fig S7)
# Description: Fig S7. […]
# as §2, §1
# factor X = test: Specificity towards pro-enzymes: factor X; format: biochemical; conditions: Factor X 50 nM; peptide 0-50 μM; S-2765 (Fig S7)
# Description: Fig S7. […]
# as §1
# pro-FSAP in WT/WT plasma = test: Substrate turnover in WT/WT plasma; format: biochemical, human; conditions: WT/WT citrate plasma 1:12; 25 μM (Fig 6A)
# Description: Figure 6 Pro-FSAP activation and clotting in plasma by NNKC9/41: (A) citrate plasma (1:12 dilution) from donors with WT/WT, WT/MI, and MI/MI genotypes and WT-FSAP-deficient plasma (FSAP-DP) were compared. Substrate turnover was monitored after addition of NNKC9/41 or the Ser–Ser linear peptide (25 μM each). Results are shown as mean + range of duplicate wells. (B) Pooled prothrombin-deficient citrated plasma (1:5 dilution) was recalcified with 10 mM CaCl2 and incubated with NNKC9/41 or scrambled control peptide (0–25 μM each) for 60 min at 37 °C in the presence or absence of the FSAP-inhibitory MA-FSAP-38C7 (5 μg/mL). Initiation of clotting was achieved by adding the tissue factor/phospholipid and prothrombin complex concentrate. Clotting time was measured as diluted prothrombin time (dPT) in seconds. Data are the mean of three independent experiments. The relative dPT in % of the untreated control is presented as mean ± standard error (SE) (*p <0.05, two-way analysis of variance (ANOVA) and Bonferroni post-test).
# Human citrate plasma (0.38% w/v) or hirudin plasma (25 μg/mL Lepirudin) was obtained from five healthy donors. […] Hydrolysis of the fluorogenic substrates was measured using a Synergy HI plate reader with excitation at 320 nm and emission at 460 nm at 37 °C for 60 min. The maximal velocity was calculated from the linear part of the progress curve. […]
sequence,measurement,setting,value
CRGAMWMYKRC [NNKC9/41],effect on activity,pro-urokinase,did not influence the activity
same,effect on activity,prothrombin,did not influence the activity
same,effect on activity,thrombin,did not influence the activity
same,effect on activity,factor X,did not influence the activity
same,substrate turnover,pro-FSAP in WT/WT plasma,high substrate turnover
